# Data reported in ChEMBL document CHEMBL1122087, “Computer graphics in drug design: molecular modeling of thyroid hormone-prealbumin interactions” (J Med Chem, 1982).
# Target: Transthyretin (Homo sapiens) (UniProt P02766)
# Test: Ability to displace L-[125I]thyoxine from the high affinity prealbumin binding site was expressed as ratio of its apparent association constant to that of L-thyroxine
row,Compound,Ka(T4)
1,NC(Cc1cc(I)c(Oc2cccc3ccc(O)cc23)c(I)c1)C(=O)O (configuration not stated),0.7%

# Target: Transthyretin (Homo sapiens) (UniProt P02766)
# Test: Ability to displace L-[125I]thyoxine from the high affinity prealbumin binding site was expressed as ratio of its apparent association constant to that of DL-thyroxine
row,Compound,Ka(T4)
1,NC(Cc1cc(I)c(Oc2ccc(O)cc2)c(I)c1)C(=O)O (configuration not stated),0.3%
2,NC(Cc1cc(I)c(Oc2cc(Br)c(O)c(Br)c2)c(I)c1)C(=O)O (configuration not stated),8.6%

# Second part, the compound after the results:
row,Ka(T4),Compound
1,6.3%,NC(Cc1cc(I)c(Oc2cccc3c(O)cccc23)c(I)c1)C(=O)O (configuration not stated)
2,1.6%,NC(Cc1cc(I)c(Oc2ccc(O)c3ccccc23)c(I)c1)C(=O)O (configuration not stated)
3,1.6%,NC(Cc1cc(I)c(Oc2ccc(O)c(Br)c2)c(I)c1)C(=O)O (configuration not stated)
4,28.7%,NC(Cc1cc(I)c(Oc2cc(Br)c(O)c3ccccc23)c(I)c1)C(=O)O (configuration not stated)
